# Results published in US20230011168A1, “Bio-Chips and Production Method Thereof” (China Medical University, priority 2021, published 2023).
# Columns and labels:
# Format in all cases: cell-based
# GR10 lung cancer cells = assay: Cancer cell survival test of target drugs, GR10
# breast cancer cells = assay: Cell viability of breast cancer cells in biochip; settings: for live cancer cells (cell viability, FIG. 14): after culturing for 3 days, high concentrations
# Excerpt: FIG. 14 is a validation test of cell viability of breast cancer cells treating by couples of cancer therapeutic drugs. […] By such, the present invention can be used to determine which cancer treatment drugs are effective for the patient.
# FIG. 15 is an immunohistochemistry corresponded to the test result of Taxol drug in FIG. 14.
# [1] = tested on: CCC cervical cancer cells; assay: Biochip drug efficacy test on CCC cervical cancer cells; settings: compared with 5-Fu and Lipodox
# Excerpt: (§1) The biochip 10 can be first served as a simulation model of a drug screening for cancer. This embodiment is an example of a drug screening for candidate drugs for cervical cancer taking from a target patient. It is worth mentioning that the biochip 10 provided by the present invention, the simulated vascular channel 12 in the preferred embodiment can be used for simulating an in-vivo environment of cervical cancer or breast cancer which these cancer cells are normally metabolized from the blood vessel in real human body. However, by switching the simulated vascular channel 12 into a gas or air flow channel (simulation of human trachea), it can be used as a simulation for lung cancer as another suitable applications for the present invention.
# (§2) In this embodiment, when producing the simulated vascular channel 12, the fluid containing endothelial cells will be fluxed for completely adhering, attaching and even starting to be cultured to the inner surface of the simulated vascular channel 12 at 37° C. for one day. Further, the peristaltic pump is connected to circulate as a biosystem. For a single simulated vascular channel 12, it is preferred to have a perfusion rate as 13 μL/min. […]
# (§3) With reference to FIGS. 8A to 8C, in this embodiment, three different cervical cancer cells are used to perform quantitative and qualitative tests of the efficacy of different cancer therapeutic drugs.
# [2] = tested on: SiHa cervical cancer cells; assay: Biochip drug efficacy test on SiHa cervical cancer cells; settings: compared with 5-Fu and Lipodox
# Excerpt: as §1, §2, §3
# [3] = tested on: Hela cervical cancer cells; assay: Biochip drug efficacy test on Hela cervical cancer cells
# Excerpt: as §1, §2
# With reference to FIGS. 8A to 8C, in this embodiment, three different cervical cancer cells are used to perform quantitative and qualitative tests of the efficacy of different cancer therapeutic drugs. […]
# lung cancer cells = assay: Cytotoxicity test on lung cancer cells in biochip, static vs dynamic perfusion
# Excerpt: With reference to FIGS. 12A and 12B, cytotoxicity tests with 5-Fu cancer cell therapeutic drug are presented.
structure (smiles),measurement,setting,value
COc1cc2ncnc(Nc3ccc(F)c(Cl)c3)c2cc1OCCCN1CCOCC1 [Gefitinib],effect on cancer cell survival (FIG. 13B),GR10 lung cancer cells,drug resistance
CC(=O)O[C@H]1C(=O)[C@@]2(C)[C@H]([C@H](OC(=O)c3ccccc3)[C@]3(O)C[C@H](OC(=O)[C@H](O)[C@@H](NC(=O)c4ccccc4)c4ccccc4)C(C)=C1C3(C)C)[C@]1(OC(C)=O)CO[C@@H]1C[C@@H]2O [Taxol],"dead cancer cells (immunohistochemistry, FIG. 15)",breast cancer cells,more and more dead cancer cells are shown
same,"live cancer cells (cell viability, FIG. 14)",breast cancer cells,significantly reducing live cancer cells
same,"cancer cell poisoning effect (bar diagrams, FIG. 8C)",[1],better cancer cell poisoning effect among other two drugs
same,"cancer cell poisoning effect (bar diagrams, FIG. 8B)",[2],better cancer cell poisoning effect among other two drugs
same,"cancer cell killing effect (immunohistochemistry, apoptotic cells)",[3]; 7th day,significant cancer cell killing effect
same,"cancer cell poisoning effect (bar diagrams, FIG. 8A)",[3]; compared with 5-Fu and Lipodox,better cancer cell poisoning effect among other two drugs
Nc1nc2[nH]cc(CCc3ccc(C(=O)N[C@@H](CCC(=O)O)C(=O)O)cc3)c2c(=O)[nH]1 [Pemetrexed],reaction compared with the other drugs (FIG. 14),"breast cancer cells; Taxol, Cisplatin, Gemcitabine vs Pemetrexed",These three drugs show better reaction than Pemetrexed
N.N.[Cl][Pt][Cl] [Cisplatin],"live cancer cells (cell viability, FIG. 14)",breast cancer cells,significantly reducing live cancer cells
Nc1ccn([C@@H]2O[C@H](CO)[C@@H](O)C2(F)F)c(=O)n1 [Gemcitabine],"live cancer cells (cell viability, FIG. 14)",breast cancer cells,significantly reducing live cancer cells
O=c1[nH]cc(F)c(=O)[nH]1 [5-Fu],cytotoxicity (FIG. 12A),lung cancer cells; dynamic perfusion compared with static culture,cytotoxicity of dynamic perfusion is more remarkable
same,"dead cancer cells (immunohistochemistry, FIG. 12B)","lung cancer cells; high dose, dynamic culture of perfusion",dead cancer cells are increased
C#Cc1cccc(Nc2ncnc3cc(OCCOC)c(OCCOC)cc23)c1 [Erlotinib],effect on cancer cell survival (FIG. 13B),GR10 lung cancer cells,drug resistance
